For this test, the target named is Calcium-activated potassium channel subunit alpha-1 (Homo sapiens) (UniProt Q12791). The test is described as follows: Activation of human BKalpha channel expressed in CHOK1 cells assessed as increase in ionic current at 30 uM relative to control. In kind it is cell-based. As to conditions: CHO-K1.
Calcium-activated potassium channel subunit alpha-1 (Homo sapiens), sequence (Q12791 whole entry): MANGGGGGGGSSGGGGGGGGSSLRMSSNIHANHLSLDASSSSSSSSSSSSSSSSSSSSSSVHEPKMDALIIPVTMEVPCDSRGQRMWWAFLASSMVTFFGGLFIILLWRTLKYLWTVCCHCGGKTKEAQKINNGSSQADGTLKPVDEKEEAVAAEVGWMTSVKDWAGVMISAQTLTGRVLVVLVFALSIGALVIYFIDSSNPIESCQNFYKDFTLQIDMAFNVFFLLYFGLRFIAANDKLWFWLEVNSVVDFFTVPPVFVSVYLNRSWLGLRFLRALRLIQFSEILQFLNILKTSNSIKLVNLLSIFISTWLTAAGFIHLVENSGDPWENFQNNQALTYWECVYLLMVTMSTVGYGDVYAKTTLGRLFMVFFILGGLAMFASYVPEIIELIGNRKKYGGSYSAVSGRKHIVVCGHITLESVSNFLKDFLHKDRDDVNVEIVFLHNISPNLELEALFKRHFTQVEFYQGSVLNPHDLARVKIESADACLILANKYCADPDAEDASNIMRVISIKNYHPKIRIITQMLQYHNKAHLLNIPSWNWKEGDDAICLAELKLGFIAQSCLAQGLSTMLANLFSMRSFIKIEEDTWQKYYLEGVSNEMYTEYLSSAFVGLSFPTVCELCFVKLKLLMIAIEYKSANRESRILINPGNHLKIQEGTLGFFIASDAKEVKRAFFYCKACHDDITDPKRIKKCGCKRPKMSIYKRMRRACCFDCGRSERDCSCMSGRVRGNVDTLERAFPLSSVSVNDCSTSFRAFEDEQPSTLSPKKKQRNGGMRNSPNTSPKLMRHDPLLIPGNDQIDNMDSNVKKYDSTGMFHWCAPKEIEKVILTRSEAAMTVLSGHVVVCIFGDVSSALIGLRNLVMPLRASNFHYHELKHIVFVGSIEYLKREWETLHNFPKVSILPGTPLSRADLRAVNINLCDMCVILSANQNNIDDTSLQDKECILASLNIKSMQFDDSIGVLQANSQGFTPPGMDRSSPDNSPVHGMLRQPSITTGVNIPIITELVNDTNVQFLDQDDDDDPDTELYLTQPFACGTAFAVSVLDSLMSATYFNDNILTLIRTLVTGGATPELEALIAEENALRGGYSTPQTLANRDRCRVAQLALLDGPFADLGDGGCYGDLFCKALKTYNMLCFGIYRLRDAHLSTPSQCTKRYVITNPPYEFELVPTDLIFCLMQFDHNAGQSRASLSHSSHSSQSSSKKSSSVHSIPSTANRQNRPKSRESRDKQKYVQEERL
For the compound `Cc1cc(C)cc(COc2ccc3c(c2)[C@@]2(C)CCC[C@](C)(C(=O)O)[C@@H]2CC3)c1`, the Activity worked out at 130%.

With `Cc1ccc(COc2ccc3c(c2)[C@@]2(C)CCC[C@](C)(C(=O)O)[C@@H]2CC3)cc1`, the Activity was determined as 151%.

As for `C[C@]1(C(=O)O)CCC[C@]2(C)c3cc(OCC4CCCCC4)ccc3CC[C@@H]12`, the Activity was 124%.

`C[C@]1(C(=O)O)CCC[C@]2(C)c3cc(OCc4ccc(C#N)cc4)ccc3CC[C@@H]12`: the Activity came out at 116%.

For `C[C@]1(C(=O)O)CCC[C@]2(C)c3cc(OCc4ccc(Cl)cc4)ccc3CC[C@@H]12`, the Activity was determined as 121%.

Consider `C[C@]1(C(=O)O)CCC[C@]2(C)c3cc(OCCOCc4ccccc4)ccc3CC[C@@H]12`, for which the Activity is 124%.

On to `C[C@]1(C(=O)O)CCC[C@]2(C)c3cc(OCCN4CCCCC4)ccc3CC[C@@H]12`, for which the Activity came to 103%.

With `CC(C)(C)c1ccc(COc2ccc3c(c2)[C@@]2(C)CCC[C@](C)(C(=O)O)[C@@H]2CC3)cc1`, the Activity came out at 116%.

As to `C[C@]1(C(=O)O)CCC[C@]2(C)c3cc(OCc4ccc(C(F)(F)F)cc4)ccc3CC[C@@H]12`, the Activity stood at 185%.

For the compound `COC(=O)[C@@]1(C)CCC[C@]2(C)c3cc(OCCCc4ccccc4)ccc3CC[C@@H]12`, the Activity was found to be 116%.

For the compound `CC(C)c1ccc(COc2ccc3c(c2)[C@@]2(C)CCC[C@](C)(C(=O)O)[C@@H]2CC3)cc1`, the Activity was determined as 125%.

On to `C[C@]1(C(=O)O)CCC[C@]2(C)c3cc(OCc4ccc(OC(F)(F)F)cc4)ccc3CC[C@@H]12`, for which the Activity was 139%.

On to `COc1ccc(COc2ccc3c(c2)[C@@]2(C)CCC[C@](C)(C(=O)O)[C@@H]2CC3)cc1`, for which the Activity stood at 109%.

For `C[C@]1(C(=O)O)CCC[C@]2(C)c3cc(O)ccc3CC[C@@H]12`, the Activity was 207%.

Consider `COC(=O)[C@@]1(C)CCC[C@]2(C)c3cc(O)ccc3CC[C@@H]12`, for which the Activity amounted to 118%.

On to `C[C@]1(C(=O)O)CCC[C@]2(C)c3cc(OCc4ccc5ccccc5c4)ccc3CC[C@@H]12`, for which the Activity worked out at 122%.

On to `C[C@]1(C(=O)O)CCC[C@]2(C)c3cc(OCCCc4ccccc4)ccc3CC[C@@H]12`, for which the Activity was found to be 244%.

`CC(C)Oc1ccc2c(c1)[C@@]1(C)CCC[C@](C)(C(=O)O)[C@@H]1CC2`: the Activity came to 134%.

Turning to `CCCOc1ccc2c(c1)[C@@]1(C)CCC[C@](C)(C(=O)O)[C@@H]1CC2`, the Activity is 170%.

For the compound `COc1ccc2c(c1)[C@@]1(C)CCC[C@](C)(C(=O)O)[C@@H]1CC2`, the Activity was found to be 124%.

On to `C=CCOc1ccc2c(c1)[C@@]1(C)CCC[C@](C)(C(=O)O)[C@@H]1CC2`, for which the Activity was determined as 148%.

For the compound `C[C@]1(C(=O)O)CCC[C@]2(C)c3cc(OCc4ccccc4)ccc3CC[C@@H]12`, the Activity was determined as 209%.

With `Cc1ccccc1COc1ccc2c(c1)[C@@]1(C)CCC[C@](C)(C(=O)O)[C@@H]1CC2`, the Activity was 88.9%.

Source of the values: ChEMBL document CHEMBL1144217, “Design, synthesis and characterization of podocarpate derivatives as openers of BK channels” (Bioorg Med Chem Lett, 2008).
